Measured values as given in patent US20220378786A1, “METHODS OF DEFINING FUNCTIONAL CHANGE AND SLOWING PROGRESSION IN CHRONIC LIVER DISEASE” (priority 2021, published 2022).

Tested on: hepatic function and portal-systemic shunting in subjects with CLD
Test: HepQuant SHUNT test (DSI and SHUNT %) relative to concomitant drug therapy in the SHUNT-V clinical study
Format: in vivo, human
Conditions: for Coefficient (Δ DSI score): multi-variable regression analysis of prescribed medications, Base DSI 27.0682; for ΔDSI: univariable regression analysis, 270 SHUNT-V subjects with CLD, on drug vs not on drug, lower DSI = better hepatic function
Source text: For example, a HepQuant® cholate liver function test (HepQuant, LLC) can be used to determine the presence and severity of liver diseases. A HepQuant® test can be a HepQuant® DSI test, HepQuant® SHUNT test or a HepQuant® STAT test. […] The term “SHUNT test” refers to a previously disclosed QLFT (quantitative liver function test) used as a comprehensive assessment of hepatic blood flow and liver function. The SHUNT test may be used to determine plasma clearance of orally and intravenously administered distinguishable cholic acids in subjects with and without chronic liver disease. SHUNT fraction or percent quantifies the spillover of the PO d4-cholate into the systemic circulation from the ratio of the clearance of the intravenously administered 13C-cholate to the clearance of the orally administered d4-cholate. In the SHUNT test, at least 5 blood samples are analyzed which have been drawn from a patient at intervals over a period of about 90 minutes after oral and intravenous administration of differentiable cholates. The SHUNT test is disclosed in Everson et al., U.S. Pat. […] The “SHUNT test value” refers to a number (in %). The term “SHUNT %” represents a quantitative measurement of portal-systemic shunting. SHUNT % is a measurement of the percentage of spillover of the orally administered d4-cholate. The first-pass hepatic elimination of cholate in percent of orally administered cholate is defined as (100%—SHUNT). Analysis of samples for stable isotopically labeled cholates is performed by, e.g., GC-MS, following sample derivitization, or LC-MS, without sample derivitization, or LC-MS/MS, or MS/MS. The ratio of the AUCs of orally to intravenously administered cholic acid, corrected for administered doses, defines cholate shunt. The cholate shunt can be calculated using the formula: AUCoral/AUCiv×Doseiv/Doseoral×100%, wherein AUCoral is the area under the curve of the serum concentrations of the orally adminstered cholic acid and AUCiv is the area under the curve of the intravenously administered cholic acid. The SHUNT test allows measurement of first-pass hepatic elimination of bile acids from the portal circulation. The term “DSI test” refers to a cholate Disease Severity Index test which is derived from one or more liver function test results based on hepatic blood flow. The DSI score is a function of the sum of cholate clearances from systemic and portal circulations adjusted to disease severity ranging from healthy subjects to end stage liver disease. DSI is a score without units representing a quantitative measurement of liver function. A disease severity index (DSI) value may be obtained in a patient by a method comprising (a) obtaining one or more liver function test values in a patient having or at risk of a chronic liver disease, wherein the one or more liver function test values are obtained from one or more liver function tests selected from the group consisting of SHUNT, portal hepatic filtration rate (portal HFR), and systemic hepatic filtration rate (systemic HFR); and (b) employing a disease severity index equation (DSI equation) to obtain a DSI value in the patient, wherein the DSI equation comprises one or more terms and a constant to obtain the DSI value, wherein at least one term of the DSI equation independently represents a liver function test value in the patient, or a mathematically transformed liver function test value in the patient from step; and the at least one term of the DSI equation is multiplied by a coefficient specific to the liver function test. DSI is an index, or score, that encompasses the cholate clearances from both systemic and portal circulations. DSI has a range from 0 (healthy) to 50 (severe end-stage disease) and is calculated from both HFRs. […] DSI test methods and equations are disclosed in U.S. Pat. Nos. 9,091,701, 9,759,731, 10,520,517, each of which is incorporated herein by reference in its entirety. Additional DSI equations have been developed and are provided herein.

[1] = ON-OFF drug, subset of 130 subjects taking anti-diabetic drug therapies (Table 6, FIG. 18)
[2] = multi-variable regression with statins, metformin, diabetes diagnosis and NASH diagnosis

| Compound | mean difference in DSI [1] | mean difference in SHUNT [1] [%] | Coefficient (Δ DSI score) | Decline in DSI [2] | Decline in SHUNT % [2] [%] | Resultant DSI (multi-variable regression, Base DSI 27.0682 plus coefficients, cumulative down the table (metformin line includes the statin coefficient)) | % Reduction in DSI (multi-variable regression, relative to Base DSI 27.0682, cumulative down the table (metformin line includes statins)) [%] | ΔDSI |
| --- | --- | --- | --- | --- | --- | --- | --- | --- |
| CN(C)C(=N)N=C(N)N [Metformin, metformin] | −2.4 | −7.4 | −2.2637 | −2.4337 | −5.9 | 21.55 | −20.4 | −4.1777 |
| CCc1ccc(CCOc2ccc(CC3SC(=O)NC3=O)cc2)nc1 (centres unmarked) [Pioglitazone] |  |  | 0.2725 |  |  |  |  | −2.4995 |
| Insulin: insulin, anti-diabetic drug therapy |  |  | −0.7947 |  |  |  |  | −2.746 |
| Vitamin E |  |  | −1.6505 |  |  |  |  | −2.0475 |
